Measured values: patent US12215140B2, “Method of stabilizing protein contained in specimen and solution for stabilizing protein contained in specimen” (EIKEN KAGAKU KABUSHIKI KAISHA, priority 2018, dated 2025)

Test system: hemoglobin-haptoglobin complex
Test: Stability of hemoglobin (as hemoglobin-haptoglobin complex) in samples preserved at 37° C. in preservation solution containing 1 unit/L haptoglobin, Hb measured by latex agglutination method (Examples 1 to 7)
Set-up: species or system human
Conditions: for Hb concentration / Recovery ratio with respect to Hb concentration after 0 days / Recovery ratio with respect to Hb after 0 days: 37° C.
Procedure, shortened: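 Hemoglobin (~300 µg/L) in 0.5% fecal suspension, or without feces, held at 37 °C for 0–21 days in 40 mmol/L HEPES pH 6.8, 0.1% BSA, 0.1% NaN3, 1 unit/L haptoglobin, with 0–100 mmol/L phenylboronic acid ± sugars. Hb quantified by latex agglutination with anti-human Hb rabbit polyclonal; recovery (%) relative to day 0.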

[1] = Feces 3, sugar 50 mmol/L + phenylboronic acid 15 mmol/L, 7 days
[2] = Feces 3, sugar 50 mmol/L + phenylboronic acid 15 mmol/L, 14 days
[3] = Feces 3, sugar 50 mmol/L + phenylboronic acid 15 mmol/L, 21 days
[4] = Feces 3, sugar 100 mmol/L + phenylboronic acid 0.5 mmol/L, 0 days
[5] = Feces 3, sugar 100 mmol/L + phenylboronic acid 0.5 mmol/L, 7 days
[6] = Feces 3, sugar 100 mmol/L + phenylboronic acid 0.5 mmol/L, 14 days
[7] = Feces 3, sugar 100 mmol/L + phenylboronic acid 15 mmol/L, 0 days
[8] = Feces 3, sugar 100 mmol/L + phenylboronic acid 15 mmol/L, 0 days (Table 7)
[9] = Feces 3, sugar 100 mmol/L + phenylboronic acid 15 mmol/L, 7 days
[10] = Feces 3, sugar 100 mmol/L + phenylboronic acid 15 mmol/L, 7 days (Table 7)
[11] = Feces 3, sugar 100 mmol/L + phenylboronic acid 15 mmol/L, 14 days
[12] = Feces 3, sugar 100 mmol/L + phenylboronic acid 15 mmol/L, 14 days (Table 7)
[13] = Feces 3, sugar 100 mmol/L + phenylboronic acid 15 mmol/L, 21 days
[14] = Feces 3, sugar 100 mmol/L + phenylboronic acid 50 mmol/L, 0 days
[15] = Feces 3, sugar 100 mmol/L + phenylboronic acid 50 mmol/L, 7 days
[16] = Feces 3, sugar 100 mmol/L + phenylboronic acid 50 mmol/L, 14 days
[17] = Feces 3, sugar 100 mmol/L, no phenylboronic acid, 0 days
[18] = Feces 3, sugar 100 mmol/L, no phenylboronic acid, 7 days
[19] = Feces 3, sugar 100 mmol/L, no phenylboronic acid, 14 days
[20] = Feces 3, sugar 100 mmol/L, no phenylboronic acid, 21 days
[21] = No feces, sugar 50 mmol/L + phenylboronic acid 15 mmol/L, 0 days
[22] = No feces, sugar 50 mmol/L + phenylboronic acid 15 mmol/L, 7 days
[23] = No feces, sugar 50 mmol/L + phenylboronic acid 15 mmol/L, 14 days
[24] = No feces, sugar 50 mmol/L + phenylboronic acid 15 mmol/L, 21 days
[25] = No feces, sugar 100 mmol/L + phenylboronic acid 0.5 mmol/L, 0 days
[26] = No feces, sugar 100 mmol/L + phenylboronic acid 0.5 mmol/L, 7 days
[27] = No feces, sugar 100 mmol/L + phenylboronic acid 0.5 mmol/L, 14 days
[28] = No feces, sugar 100 mmol/L + phenylboronic acid 15 mmol/L, 0 days
[29] = No feces, sugar 100 mmol/L + phenylboronic acid 15 mmol/L, 0 days (Table 7)
[30] = No feces, sugar 100 mmol/L + phenylboronic acid 15 mmol/L, 7 days
[31] = No feces, sugar 100 mmol/L + phenylboronic acid 15 mmol/L, 7 days (Table 7)
[32] = No feces, sugar 100 mmol/L + phenylboronic acid 15 mmol/L, 14 days
[33] = No feces, sugar 100 mmol/L + phenylboronic acid 15 mmol/L, 14 days (Table 7)
[34] = No feces, sugar 100 mmol/L + phenylboronic acid 15 mmol/L, 21 days
[35] = No feces, sugar 100 mmol/L + phenylboronic acid 50 mmol/L, 0 days
[36] = No feces, sugar 100 mmol/L + phenylboronic acid 50 mmol/L, 7 days
[37] = No feces, sugar 100 mmol/L + phenylboronic acid 50 mmol/L, 14 days
[38] = No feces, sugar 100 mmol/L, no phenylboronic acid, 0 days
[39] = No feces, sugar 100 mmol/L, no phenylboronic acid, 7 days
[40] = No feces, sugar 100 mmol/L, no phenylboronic acid, 14 days
[41] = No feces, sugar 100 mmol/L, no phenylboronic acid, 21 days

OC[C@@H](O)[C@@H](O)[C@H](O)[C@@H](O)CO [Sorbitol, sorbitol]
Hb concentration [1]: 250 µg/L | Recovery ratio with respect to Hb concentration after 0 days [1]: 88% | Hb concentration [2]: 235 µg/L | Recovery ratio with respect to Hb concentration after 0 days [2]: 83% | Hb concentration [3]: 223 µg/L | Recovery ratio with respect to Hb concentration after 0 days [3]: 79% | Hb concentration [4]: 294 µg/L | Recovery ratio with respect to Hb after 0 days [4]: 100% | Hb concentration [5]: 163 µg/L | Recovery ratio with respect to Hb after 0 days [5]: 55% | Hb concentration [6]: 145 µg/L | Recovery ratio with respect to Hb after 0 days [6]: 49% | Hb concentration [7]: 278 µg/L | Recovery ratio with respect to Hb concentration after 0 days [7]: 100% | Hb concentration [8]: 292 µg/L | Recovery ratio with respect to Hb after 0 days [8]: 100% | Hb concentration [9]: 244 µg/L | Recovery ratio with respect to Hb concentration after 0 days [9]: 88% | Hb concentration [10]: 246 µg/L | Recovery ratio with respect to Hb after 0 days [10]: 84% | Hb concentration [11]: 226 µg/L | Recovery ratio with respect to Hb concentration after 0 days [11]: 81% | Hb concentration [12]: 233 µg/L | Recovery ratio with respect to Hb after 0 days [12]: 80% | Hb concentration [13]: 219 µg/L | Recovery ratio with respect to Hb concentration after 0 days [13]: 79% | Hb concentration [14]: 273 µg/L | Recovery ratio with respect to Hb after 0 days [14]: 100% | Hb concentration [15]: 247 µg/L | Recovery ratio with respect to Hb after 0 days [15]: 90% | Hb concentration [16]: 230 µg/L | Recovery ratio with respect to Hb after 0 days [16]: 84% | Hb concentration [17]: 278 µg/L | Recovery ratio with respect to Hb concentration after 0 days [17]: 100% | Hb concentration [18]: 98 µg/L | Recovery ratio with respect to Hb concentration after 0 days [18]: 35% | Hb concentration [19]: 62 µg/L | Recovery ratio with respect to Hb concentration after 0 days [19]: 22% | Hb concentration [20]: 56 µg/L | Recovery ratio with respect to Hb concentration after 0 days [20]: 20% | Hb concentration [21]: 281 µg/L | Recovery ratio with respect to Hb concentration after 0 days [21]: 100% | Hb concentration [22]: 261 µg/L | Recovery ratio with respect to Hb concentration after 0 days [22]: 93% | Hb concentration [23]: 251 µg/L | Recovery ratio with respect to Hb concentration after 0 days [23]: 89% | Hb concentration [24]: 265 µg/L | Recovery ratio with respect to Hb concentration after 0 days [24]: 94% | Hb concentration [25]: 291 µg/L | Recovery ratio with respect to Hb after 0 days [25]: 100% | Hb concentration [26]: 277 µg/L | Recovery ratio with respect to Hb after 0 days [26]: 95% | Hb concentration [27]: 273 µg/L | Recovery ratio with respect to Hb after 0 days [27]: 94% | Hb concentration [28]: 276 µg/L | Recovery ratio with respect to Hb concentration after 0 days [28]: 100% | Hb concentration [29]: 288 µg/L | Recovery ratio with respect to Hb after 0 days [29]: 100% | Hb concentration [30]: 252 µg/L | Recovery ratio with respect to Hb concentration after 0 days [30]: 91% | Hb concentration [31]: 274 µg/L | Recovery ratio with respect to Hb after 0 days [31]: 95% | Hb concentration [32]: 244 µg/L | Recovery ratio with respect to Hb concentration after 0 days [32]: 88% | Hb concentration [33]: 268 µg/L | Recovery ratio with respect to Hb after 0 days [33]: 93% | Hb concentration [34]: 255 µg/L | Recovery ratio with respect to Hb concentration after 0 days [34]: 92% | Hb concentration [35]: 290 µg/L | Recovery ratio with respect to Hb after 0 days [35]: 100% | Hb concentration [36]: 295 µg/L | Recovery ratio with respect to Hb after 0 days [36]: 102% | Hb concentration [37]: 293 µg/L | Recovery ratio with respect to Hb after 0 days [37]: 101% | Hb concentration [38]: 255 µg/L | Recovery ratio with respect to Hb concentration after 0 days [38]: 100% | Hb concentration [39]: 239 µg/L | Recovery ratio with respect to Hb concentration after 0 days [39]: 94% | Hb concentration [40]: 235 µg/L | Recovery ratio with respect to Hb concentration after 0 days [40]: 92% | Hb concentration [41]: 236 µg/L | Recovery ratio with respect to Hb concentration after 0 days [41]: 93% | recovery ratio of hemoglobin in the sample (sugar 100 mmol/L further added to other arylboronic acids (3-CPBA, 3-HPBA, 3-APBA) 15 mmol/L, Feces 1, Feces 2, Feces 3): further improved | recovery ratio of hemoglobin in the samples containing fecal specimens (sugar 100 mmol/L, preservation solutions containing no phenylboronic acid): does not improve | recovery ratio of hemoglobin in the sample (sugar 50 or 100 mmol/L further added to phenylboronic acid 15 mmol/L, Feces 1, Feces 2, Feces 3): remarkably improved | recovery ratio of hemoglobin in the samples containing feces (sugar added to phenylboronic acid 15 mmol/L, Feces 1, Feces 2, Feces 3): improved depending on the added concentration
